From ChEMBL document CHEMBL6078657, “Thiazolidinedione-based structure modification of ergosterol peroxide provides thiazolidinedione-conjugated derivatives as potent agents against breast cancer cells through a PI3K/AKT/mTOR pathway” (Bioorg Med Chem, 2025)
Calls of active or inactive are those of the source. The rule behind the calls is not given here.

Key:
A549 = assay: Antiproliferative activity against human A549 cells assessed as cell viability measured after 48 hrs incubation by MTT assay; type: functional, cell-based; conditions: A549, 48 h
MCF7 [1] = assay: Antiproliferative activity against human MCF7 cells assessed as cell viability measured after 48 hrs incubation by MTT assay; type: functional, cell-based; conditions: MCF7, 48 h
[2] = Selectivity index, ratio of IC50 for human MCF-10A cells to IC50 for human MCF7 cells; type: toxicity; conditions: MCF-10A cells and MCF7 cells, read-out: Selectivity Index
HepG2 = assay: Antiproliferative activity against human HepG2 cells assessed as cell viability measured after 48 hrs incubation by MTT assay; type: functional, cell-based; conditions: HepG2, 48 h
[3] = Antiproliferative activity against human MCF-10A cells assessed as cell viability measured after 48 hrs incubation by MTT assay; type: toxicity, cell-based
MCF7 [4] = assay: Induction of cell cycle arrest in human MCF7 cells assessed as accumulation of cells at S phase at 6 uM measured after 48 hrs by PI staining based flow cytometry analysis (reference value: 24.67%); type: functional
MCF7 [5] = assay: Induction of cell cycle arrest in human MCF7 cells assessed as accumulation of cells at G2/M phase at 6 uM measured after 48 hrs by PI staining based flow cytometry analysis (reference value: 16.91%); type: functional
MCF7 [6] = assay: Induction of apoptosis in human MCF7 cells assessed as late apoptotic cells at 6 uM measured after 48 hrs incubation by Annexin V-FITC/PI double staining assay (reference value: 0.68%); type: functional
MCF7 [7] = assay: Induction of cell cycle arrest in human MCF7 cells assessed as accumulation of cells at G0/G1 phase at 6 uM measured after 48 hrs by PI staining based flow cytometry analysis (reference value: 58.42%); type: functional
MCF7 [8] = assay: Induction of apoptosis in human MCF7 cells assessed as necrotic cells at 6 uM measured after 48 hrs incubation by Annexin V-FITC/PI double staining assay (reference value: 0.77%); type: functional
MCF7 [9] = assay: Induction of apoptosis in human MCF7 cells assessed as viable cells at 6 uM measured after 48 hrs incubation by Annexin V-FITC/PI double staining assay (reference value: 92.8%); type: functional; conditions: read-out: Activity
MCF7 [10] = assay: Induction of apoptosis in human MCF7 cells assessed as early apoptotic cells at 6 uM measured after 48 hrs incubation by Annexin V-FITC/PI double staining assay (reference value: 5.73%); type: functional
MCF7 [11] = assay: Induction of apoptosis in human MCF7 cells assessed as decrease in mitochondrial membrane potential by measuring increase in JC-1 monomer (green fluorescence) at 6 uM incubated for 48 hrs by JC-1 staining based flow cytometry analysis (reference value: 2.96%); type: functional; parameters: scale not given: the % may be the effect or the level left
4T1 [12] = assay: In vivo antitumor activity against mouse 4T1 cells transfected in BALB/c mouse assessed as tumor growth inhibition at 15 mg/kg, ip daily for 14 consecutive days relative to control; type: functional; conditions: time 14.0 day
[13] = Toxicity in healthy BALB/c mouse assessed as pathological changes in heart at 20 mg/kg, ip daily for 14 consecutive days by HE staining based assay; type: organism-based; conditions: in vivo, 336 h, time 14 day
4T1 [14] = assay: In vivo antitumor activity against mouse 4T1 cells transfected in BALB/c mouse assessed as tumor growth inhibition at 30 mg/kg, ip daily for 14 consecutive days relative to control; type: functional; conditions: 4T1, 336 h, time 14 day, read-out: TGI

Compound `COc1ccc(/C=C2\SC(=O)N(CC(=O)NCCNC(=O)O[C@H]3CC[C@]4(C)[C@H]5CC[C@]6(C)[C@@H]([C@H](C)/C=C/[C@H](C)C(C)C)CC[C@H]6[C@@]56C=C[C@]4(C3)OO6)C2=O)c(OC)c1OC` has an IC50 (A549) of 5.08 µM, an IC50 (MCF7 [1]) of 4.26 µM and a selectivity ratio [2] of 7.07. For the same compound, the IC50 (HepG2) was 5.77 µM and the IC50 at 48 h [3] was 30.1 µM.

With `CC(C)[C@@H](C)/C=C/[C@@H](C)[C@H]1CC[C@@H]2[C@]1(C)CC[C@H]1[C@]23C=C[C@]2(C[C@@H](OC(=O)NCCNC(=O)CN4C(=O)S/C(=C\c5ccccc5)C4=O)CC[C@]12C)OO3` the IC50 (A549) was 11.4 µM, the IC50 (MCF7 [1]) was 6.8 µM and the selectivity ratio [2] was 6.12. For the same compound, the IC50 (HepG2) was 7.95 µM and the IC50 at 48 h [3] was 41.6 µM.

Compound `Cc1ccc(/C=C2\SC(=O)N(CC(=O)NCCNC(=O)O[C@H]3CC[C@]4(C)[C@H]5CC[C@]6(C)[C@@H]([C@H](C)/C=C/[C@H](C)C(C)C)CC[C@H]6[C@@]56C=C[C@]4(C3)OO6)C2=O)cc1` has an IC50 (A549) of 7.18 µM, an IC50 (MCF7 [1]) of 4.71 µM and a selectivity ratio [2] of 5.11. For the same compound, the IC50 (HepG2) was 6.82 µM and the IC50 at 48 h [3] was 24.1 µM.

Work on `CC(C)[C@@H](C)/C=C/[C@@H](C)[C@H]1CC[C@@H]2[C@]1(C)CC[C@H]1[C@]23C=C[C@]2(C[C@@H](O)CC[C@]12C)OO3` [ERGOSTEROL PEROXIDE] yielded an IC50 (A549) of 15 µM, an Activity (MCF7 [4]) of 18.74% and an Activity (MCF7 [5]) of 19.66%. It also gave an Activity (MCF7 [6]) of 0.45%, an Activity (MCF7 [7]) of 61.61% and an Activity (MCF7 [8]) of 0.47%. It also gave an IC50 (MCF7 [1]) of 19.4 µM, a viability at 6 µM (MCF7 [9]) of 90.1% and an IC50 (HepG2) of 18.1 µM. For the same compound, the Activity (MCF7 [10]) was 8.97% and the Activity (MCF7 [11]) was 11.3%.

`CC(C)[C@@H](C)/C=C/[C@@H](C)[C@H]1CC[C@@H]2[C@]1(C)CC[C@H]1[C@]23C=C[C@]2(C[C@@H](OC(=O)NCCNC(=O)CN4C(=O)S/C(=C\C5CC5)C4=O)CC[C@]12C)OO3` showed an IC50 (A549) of 3.32 µM, an IC50 (MCF7 [1]) of 5.49 µM and a selectivity ratio [2] of 6.55. For the same compound, the IC50 (HepG2) was 6.02 µM and the IC50 at 48 h [3] was 35.9 µM.

`CC(C)[C@@H](C)/C=C/[C@@H](C)[C@H]1CC[C@@H]2[C@]1(C)CC[C@H]1[C@]23C=C[C@]2(C[C@@H](OC(=O)NCCNC(=O)CN4C(=O)S/C(=C\c5ccc(Cl)cc5)C4=O)CC[C@]12C)OO3` showed an IC50 (A549) of 8.91 µM, an IC50 (MCF7 [1]) of 5.9 µM and a selectivity ratio [2] of 4.9. For the same compound, the IC50 (HepG2) was 8.92 µM and the IC50 at 48 h [3] was 28.9 µM.

With `CC(C)[C@@H](C)/C=C/[C@@H](C)[C@H]1CC[C@@H]2[C@]1(C)CC[C@H]1[C@]23C=C[C@]2(C[C@@H](OC(=O)NCCNC(=O)CN4C(=O)S/C(=C\c5ccc(Br)cc5)C4=O)CC[C@]12C)OO3` the IC50 (A549) was 7.9 µM, the IC50 (MCF7 [1]) was 4.39 µM and the selectivity ratio [2] was 10.3. It also gave an IC50 (HepG2) of 7.34 µM and an IC50 at 48 h [3] of 45.3 µM.

Compound `COc1ccc(/C=C2\SC(=O)N(CC(=O)NCCNC(=O)O[C@H]3CC[C@]4(C)[C@H]5CC[C@]6(C)[C@@H]([C@H](C)/C=C/[C@H](C)C(C)C)CC[C@H]6[C@@]56C=C[C@]4(C3)OO6)C2=O)cc1OC` has an IC50 (A549) of 8.54 µM, an IC50 (MCF7 [1]) of 5.33 µM and a selectivity ratio [2] of 3.89. The IC50 (HepG2) was 6.18 µM and the IC50 at 48 h [3] was 20.8 µM.

`CC(C)[C@@H](C)/C=C/[C@@H](C)[C@H]1CC[C@@H]2[C@]1(C)CC[C@H]1[C@]23C=C[C@]2(C[C@@H](OC(=O)N4CCN(C(=O)CN5C(=O)S/C(=C\c6ccsc6)C5=O)CC4)CC[C@]12C)OO3` showed an IC50 (A549) of 8.14 µM, an IC50 (MCF7 [1]) of 13.6 µM and an IC50 (HepG2) of 16.8 µM.

Work on `CC(C)[C@@H](C)/C=C/[C@@H](C)[C@H]1CC[C@@H]2[C@]1(C)CC[C@H]1[C@]23C=C[C@]2(C[C@@H](OC(=O)CN4C(=O)S/C(=C/c5ccc(C(C)(C)C)cc5)C4=O)CC[C@]12C)OO3` yielded an IC50 (A549) of 8.31 µM, an IC50 (MCF7 [1]) of 9.44 µM and an IC50 (HepG2) of 15.4 µM.

Compound `CC(C)[C@@H](C)/C=C/[C@@H](C)[C@H]1CC[C@@H]2[C@]1(C)CC[C@H]1[C@]23C=C[C@]2(C[C@@H](OC(=O)CN4C(=O)S/C(=C/c5ccco5)C4=O)CC[C@]12C)OO3` has an IC50 (A549) of 15 µM, an IC50 (MCF7 [1]) of 21 µM and an IC50 (HepG2) of 20.2 µM.

With `CC(C)[C@@H](C)/C=C/[C@@H](C)[C@H]1CC[C@@H]2[C@]1(C)CC[C@H]1[C@]23C=C[C@]2(C[C@@H](OC(=O)N4CCN(C(=O)CN5C(=O)S/C(=C\C6CC6)C5=O)CC4)CC[C@]12C)OO3` the IC50 (A549) was 6.06 µM, the IC50 (MCF7 [1]) was 7.17 µM and the IC50 (HepG2) was 8.97 µM.

Compound `CC(C)[C@@H](C)/C=C/[C@@H](C)[C@H]1CC[C@@H]2[C@]1(C)CC[C@H]1[C@]23C=C[C@]2(C[C@@H](OC(=O)CN4C(=O)S/C(=C/c5ccc(Cl)cc5Cl)C4=O)CC[C@]12C)OO3` has an IC50 (A549) of 11 µM, an IC50 (MCF7 [1]) of 10.2 µM and an IC50 (HepG2) of 13.1 µM.

`COc1ccc(/C=C2\SC(=O)N(CC(=O)N3CCN(C(=O)O[C@H]4CC[C@]5(C)[C@H]6CC[C@]7(C)[C@@H]([C@H](C)/C=C/[C@H](C)C(C)C)CC[C@H]7[C@@]67C=C[C@]5(C4)OO7)CC3)C2=O)cc1` gave an IC50 (A549) of 6.24 µM, an IC50 (MCF7 [1]) of 13.7 µM and an IC50 (HepG2) of 8.85 µM.

With `CC(C)/C=C1/SC(=O)N(CC(=O)O[C@H]2CC[C@]3(C)[C@H]4CC[C@]5(C)[C@@H]([C@H](C)/C=C/[C@H](C)C(C)C)CC[C@H]5[C@@]45C=C[C@]3(C2)OO5)C1=O` the IC50 (A549) was 7.65 µM, the IC50 (MCF7 [1]) was 20.4 µM and the IC50 (HepG2) was 14.6 µM.

For `O=c1[nH]cc(F)c(=O)[nH]1` [FLUOROURACIL], the IC50 (A549) was 4.27 µM, the TGI (4T1 [12]) was “Active” and the Activity [13] was “Non-toxic”. For the same compound, the IC50 (HepG2) was 10.7 µM and the inhibition in vivo at 30 mg/kg (4T1 [14]) was 86.1%.

Work on `CC(C)[C@@H](C)/C=C/[C@@H](C)[C@H]1CC[C@@H]2[C@]1(C)CC[C@H]1[C@]23C=C[C@]2(C[C@@H](OC(=O)CN4C(=O)S/C(=C/c5ccccc5)C4=O)CC[C@]12C)OO3` yielded an IC50 (A549) of 13.7 µM, an IC50 (MCF7 [1]) of 12.5 µM and an IC50 (HepG2) of 17.6 µM.

`CC(C)[C@@H](C)/C=C/[C@@H](C)[C@H]1CC[C@@H]2[C@]1(C)CC[C@H]1[C@]23C=C[C@]2(C[C@@H](OC(=O)N4CCN(C(=O)CN5C(=O)S/C(=C\c6ccc(F)cc6)C5=O)CC4)CC[C@]12C)OO3` showed an IC50 (A549) of 9.34 µM, an IC50 (MCF7 [1]) of 12.2 µM and an IC50 (HepG2) of 12 µM.

In the case of `COc1ccccc1/C=C1\SC(=O)N(CC(=O)N2CCN(C(=O)O[C@H]3CC[C@]4(C)[C@H]5CC[C@]6(C)[C@@H]([C@H](C)/C=C/[C@H](C)C(C)C)CC[C@H]6[C@@]56C=C[C@]4(C3)OO6)CC2)C1=O`, the IC50 (A549) is reported as 10.2 µM, the IC50 (MCF7 [1]) is reported as 15.4 µM and the IC50 (HepG2) is reported as 22.6 µM.

Compound `CC(C)[C@@H](C)/C=C/[C@@H](C)[C@H]1CC[C@@H]2[C@]1(C)CC[C@H]1[C@]23C=C[C@]2(C[C@@H](OC(=O)N4CCN(C(=O)CN5C(=O)S/C(=C\c6ccc(F)c(Cl)c6)C5=O)CC4)CC[C@]12C)OO3` has an IC50 (A549) of 12.5 µM, an IC50 (MCF7 [1]) of 15.2 µM and an IC50 (HepG2) of 13.7 µM.
